This passage reports Ki results from patent US9260425B2 (Genetech, Inc., priority 2011, dated 2016).

pKi: −log10 of the molar value.

In general, pKi refers to the negative decadic logarithm of the Ki, by convention in mol/L.

Pim-1, sequence (P11309 whole entry): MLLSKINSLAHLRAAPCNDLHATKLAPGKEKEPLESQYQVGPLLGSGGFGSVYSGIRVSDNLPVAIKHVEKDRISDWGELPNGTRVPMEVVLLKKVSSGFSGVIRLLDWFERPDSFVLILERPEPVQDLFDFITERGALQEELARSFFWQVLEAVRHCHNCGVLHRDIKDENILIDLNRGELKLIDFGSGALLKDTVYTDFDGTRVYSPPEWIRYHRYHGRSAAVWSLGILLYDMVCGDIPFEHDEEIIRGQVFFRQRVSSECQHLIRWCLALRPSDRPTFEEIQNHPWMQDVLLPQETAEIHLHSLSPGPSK

This experiment concerns the target Pim-1 (Homo sapiens (Human), UniProt P11309). As to the kind of experiment: Pim kinase binding activity assay (Example 901), PIM-1 enzyme, Caliper microfluidic peptide phosphorylation. The format is biochemical. The conditions noted are these: 20 pM PIM-1, 10 μM ATP, 1 μM FAM-peptide, 90 minutes at room temperature. The protocol: Pim Kinase Binding Activity
A fluorescent-labeled Pim-specific peptide substrate, was custom synthesized by American Peptide Company (Sunnyvale, Calif.). Reaction Buffer contained 10 mM HEPES, pH 7.2, 10 mM MgCl2, 0.01% Tween 20, 2 mM DTT. Termination Buffer contained 190 mM HEPES, pH 7.2, 0.015% Brij-35, 0.2% Coating Reagent 3 (Caliper Life Sciences, Hopkinton, Mass.), 20 mM EDTA. Separation Buffer contained 100 mM HEPES, pH 7.2, 0.015% Brij-35, 0.1% Coating Reagent 3, 1:200 Coating Reagent 8 (Caliper Life Sciences, Hopkinton, Mass.), 10 mM EDTA and 5% DMSO.
PIM reactions were carried out in a final volume of 10 μL per well in a 384-well plate. A standard enzymatic reaction, initiated by the addition of 5 μL 2×ATP and test compound to 5 μL of 2× enzyme and FAM-peptide, contained 20 pM PIM-1, 50 pM PIM-2, or 55 pM PIM-3, 1 μM FAM-peptide, and 10 μM ATP, in Reaction Buffer. After 90 minutes of incubation at room temperature, the phosphorylation reaction was stopped by the addition of 10 μL Termination Buffer. The product and substrate in each independent reaction were separated on a 12-sipper microfluidic chip (Caliper Life Sciences, Hopkinton, Mass.) run on a Caliper LC3000® (Caliper Life Sciences, Hopkinton, Mass.). The separation of product and substrate was optimized by choosing voltages and pressure using Caliper's Optimizer software (Hopkinton, Mass.). […] The product and substrate fluorophore were excited at 488 nm and detected at 530 nm. Substrate conversion was calculated from the electropherogram using HTS Well Analyzer software (Caliper Life Sciences, Hopkinton, Mass.). Ki values for the test compound were calculated.
With `Cn1cc(-c2cc3c(-c4ccccc4)n[nH]c3cn2)cn1` [Example 133, 5-(1-methyl-1H-pyrazol-4-yl)-3-phenyl-1H-pyrazolo[3,4-c]pyridine], the pKi is 8.25. Turning to `NC1CCN(c2cncc(-c3cc4c(-c5ccccc5F)n[nH]c4cn3)c2)CC1` [Example 157, 1-(5-(3-(2-fluorophenyl)-1H-pyrazolo[3,4-c]pyridin-5-yl)pyridin-3-yl)piperidin-4-amine], the pKi was 8.88. To `c1cncc(-c2cc3c(-c4cccnc4)n[nH]c3cn2)c1` [Example 176, 3,5-di(pyridin-3-yl)-1H-pyrazolo[3,4-c]pyridine] belongs 8.19; to `CCn1cc(-c2cc3c(-c4cccc(N5CCNC[C@@H](O)C5)n4)n[nH]c3cn2)cn1` [Example 411, (R)-1-(6-(5-(1-ethyl-1H-pyrazol-4-yl)-1H-pyrazolo[3,4-c]pyridin-3-yl)pyridin-2-yl)-1,4-diazepan-6-ol], 10.85; to `CC1CN(c2cccc(-c3n[nH]c4cnc(-c5cnn(CCF)c5)cc34)n2)CCN1` (stereo not drawn) [Example 516, 5-(1-(2-fluoroethyl)-1H-pyrazol-4-yl)-3-(6-(3-methylpiperazin-1-yl)pyridin-2-yl)-1H-pyrazolo[3,4-c]pyridine], 10.62. Turning to `C=C(C)c1ccc(-c2n[nH]c3cnc(-c4cccnc4)cc23)nc1N1CCC[C@H](N)C1` [Example 308, (S)-1-(3-(prop-1-en-2-yl)-6-(5-(pyridin-3-yl)-1H-pyrazolo[3,4-c]pyridin-3-yl)pyridin-2-yl)piperidin-3-amine], the pKi was 11.00. Turning to `O=C(NC1CNC1)c1cccc(-c2n[nH]c3cnc(-c4cccnc4)cc23)n1` [Example 329, N-(azetidin-3-yl)-6-(5-(pyridin-3-yl)-1H-pyrazolo[3,4-c]pyridin-3-yl)picolinamide], the pKi is 7.78. Regarding `NC(=O)Nc1cc2c(-c3cccc(N4CCC[C@H](N)C4)n3)n[nH]c2cn1` [Example 298, (S)-1-(3-(6-(3-aminopiperidin-1-yl)pyridin-2-yl)-1H-pyrazolo[3,4-c]pyridin-5-yl)urea], the pKi was 7.85. Turning to `CCn1cc(-c2cc3c(-c4cccc(N5CCC[C@](C)(O)C5)n4)n[nH]c3cn2)cn1` [Example 464, (S)-1-(6-(5-(1-ethyl-1H-pyrazol-4-yl)-1H-pyrazolo[3,4-c]pyridin-3-yl)pyridine-2-yl)-3-methylpiperidin-3-ol], the pKi is 10.14.

`C[C@H]1CN(c2cccc(-c3n[nH]c4cnc(-c5cnn(CCF)c5)cc34)n2)CCN1` [Example 503, (S)-5-(1-(2-fluoroethyl)-1H-pyrazol-4-yl)-3-(6-(3-methylpiperazin-1-yl)pyridin-2-yl)-1H-pyrazolo[3,4-c]pyridine]: the pKi is 10.53. To `CCn1cc(-c2cc3c(-c4ccc(Br)c(N5C[C@H](N)C[C@@H](F)C5)n4)n[nH]c3cn2)cn1` [Example 455, (3R,5R)-1-(3-bromo-6-(5-(1-ethyl-1H-pyrazoI-4-yl)-1H-pyrazolo[3,4-c]pyridin-3-yl)pyridin-2-yl)-5-fluoropiperidin-3-amine] belongs 10.55. The same measure for `c1cncc(-c2cc3c(-c4cnn(CC5CCNCC5)c4)n[nH]c3cn2)c1` [Example 186, 3-(1-(piperidin-4-ylmethyl)-1H-pyrazol-4-yl)-5-(pyridin-3-yl)-1H-pyrazolo[3,4-c]pyridine]: 9.14.

`c1cc(-c2n[nH]c3cnc(C4CCCOC4)cc23)nc(N2CCNCC2)c1` (stereo not drawn) [Example 181, 3-(6-(piperazin-1-yl)pyridin-2-yl)-5-(tetrahydro-2H-pyran-3-yl)-1H-pyrazolo[3,4-c]pyridine] gave a pKi of 8.40.

As to `CCc1cncc(-c2cc3c(-c4cccc(N5CCNCC5)n4)n[nH]c3cn2)c1` [Example 438, 5-(5-ethylpyridin-3-yl)-3-(6-(piperazin-1-yl)pyridin-2-yl)-1H-pyrazolo[3,4-c]pyridine], the pKi is 11.40. To `N[C@@H]1CN(c2cccc(-c3n[nH]c4cnc(-c5cccnc5)cc34)n2)CC[C@H]1F` (relative stereo) [Example 453, trans-4-fluoro-1-(6-(5-(pyridin-3-yl)-1H-pyrazolo[3,4-c]pyridin-3-yl)pyridin-2-yl)piperidin-3-amine] belongs 9.53; to `Fc1ccccc1-c1n[nH]c2cnc(-c3cncnc3)cc12` [Example 138, 3-(2-fluorophenyl)-5-(pyrimidin-5-yl)-1H-pyrazolo[3,4-c]pyridine], 6.24. The same measure for `c1cncc(-c2cc3c(-c4cccc(N5CCNCC5)n4)n[nH]c3cn2)c1` [Example 162, 3-(6-(piperazin-1-yl)pyridin-2-yl)-5-(pyridin-3-yl)-1H-pyrazolo[3,4-c]pyridine]: 10.43; for `c1ccc(-c2n[nH]c3cnc(-c4cncnc4)cc23)cc1` [Example 150, 3-phenyl-5-(pyrimidin-5-yl)-1H-pyrazolo[3,4-c]pyridine]: 6.68. The same measure for `Cc1n[nH]c2cnc(-c3cncc(F)c3)cc12` [Example 123, 5-(5-fluoropyridin-3-yl)-3-methyl-1H-pyrazolo[3,4-c]pyridine]: 6.13. Consider `Cn1ccc(-c2n[nH]c3cnc(-c4cccnc4)cc23)n1` [Example 232, 3-(1-methyl-1H-pyrazol-3-yl)-5-(pyridin-3-yl)-1H-pyrazolo[3,4-c]pyridine], for which the negative logarithm of the Ki (pKi) was 8.15. In the case of `Cn1cc(-c2cc3c(-c4cnn(C)c4)n[nH]c3cn2)cn1` [Example 163, 3,5-bis(1-methyl-1H-pyrazol-4-yl)-1H-pyrazolo[3,4-c]pyridine], the pKi is 8.72. To `N[C@@H]1CCC[C@@H](Nc2cccc(-c3n[nH]c4cnc(-c5cccnc5)cc34)n2)C1` [Example 352, (1R,3R)-N1-(6-(5-(pyridin-3-yl)-1H-pyrazolo[3,4-c]pyridin-3-yl)pyridin-2-yl)cyclohexane-1,3-diamine] belongs 10.60. `Cn1cc(-c2cc3c(-c4cccc(N5CCC[C@@H](N)C5)c4)n[nH]c3cn2)cn1` [Example 222, (R)-1-(3-(5-(1-methyl-1H-pyrazol-4-yl)-1H-pyrazolo[3,4-c]pyridin-3-yl)phenyl)piperidin-3-amine]: the pKi was 9.41. For the compound `Cn1cc(-c2cc3c(-c4cnn(CC(C)(C)O)c4)n[nH]c3cn2)cn1` [Example 250, 2-methyl-1-(4-(5-(1-methyl-1H-pyrazol-4-yl)-1H-pyrazolo[3,4-c]pyridin-3-yl)-1H-pyrazol-1-yl)propan-2-ol], the pKi is 9.41. To `Cc1ccc(-c2n[nH]c3cnc(-c4cccnc4)cc23)nc1N1CCC(N)CC1` [Example 243, 1-(3-methyl-6-(5-(pyridin-3-yl)-1H-pyrazolo[3,4-c]pyridin-3-yl)pyridin-2-yl)piperidin-4-amine] belongs 10.31; to `CC(O)c1cncc(-c2cc3c(-c4cccc(N5CCNCC5)n4)n[nH]c3cn2)c1` (stereo not drawn) [Example 483, 1-(5-(3-(6-(piperazin-1-yl)pyridin-2-yl)-1H-pyrazolo[3,4-c]pyridin-5-yl)pyridin-3-yl)ethanol], 10.57; to `N[C@@H]1CCCCN(c2cccc(-c3n[nH]c4cnc(-c5cnn(CCF)c5)cc34)n2)C1` [Example 520, (R)-1-(6-(5-(1-(2-fluoroethyl)-1H-pyrazol-4-yl)-1H-pyrazolo[3,4-c]pyridin-3-yl)pyridin-2-yl)azepan-3-amine], 10.01. To `N[C@@H]1CCC[C@H](Nc2cccc(-c3n[nH]c4cnc(-c5cccnc5)cc34)n2)C1` [Example 239, (1S,3R)—N1-(6-(5-(pyridin-3-yl)-1H-pyrazolo[3,4-c]pyridin-3-yl)pyridin-2-yl)cyclohexane-1,3-diamine] belongs 9.52; to `Cn1cc(-c2cc3c(-c4ccnc(C5CCNCC5)n4)n[nH]c3cn2)cn1` [Example 439, 5-(1-methyl-1H-pyrazol-4-yl)-3-(2-(piperidin-4-yl)pyrimidin-4-yl)-1H-pyrazolo[3,4-c]pyridine], 9.24. The same measure for `c1cncc(-c2cc3c(CNC4CCNCC4)n[nH]c3cn2)c1` [Example 109, N-((5-(pyridin-3-yl)-1H-pyrazolo[3,4-c]pyridin-3-yl)methyl)piperidin-4-amine]: 5.42; for `N[C@H]1CCCN(c2cccc(-c3n[nH]c4cnc(N5CCOC5=O)cc34)n2)C1` [Example 374, (S)-3-(3-(6-(3-aminopiperidin-1-yl)pyridin-2-yl)-1H-pyrazolo[3,4-c]pyridin-5-yl)oxazolidin-2-one]: 7.07; for `Cc1cncc(-c2cc3c(-c4cccc(N5CCNCC5)n4)n[nH]c3cn2)c1` [Example 384, 5-(5-methylpyridin-3-yl)-3-(6-(piperazin-1-yl)pyridin-2-yl)-1H-pyrazolo[3,4-c]pyridine]: 10.39. For the compound `C1=C(c2n[nH]c3cnc(-c4cccnc4)cc23)CCC1` [Example 225, 3-cyclopentenyl-5-(pyridin-3-yl)-1H-pyrazolo[3,4-c]pyridine], the negative logarithm of the Ki (pKi) is 8.55.
